The record followed here is PubChem BioAssay AID652211 (Johns Hopkins Ion Channel Center, 2013).

The source made the active and inactive calls.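 Rule for the calls: active = lowers flux through the TASK3 potassium channel at some tested dose, with a dose response curve; inactive = no inhibition at any dose or no dose response.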

What is called IC50 is the concentration at which inhibition is half-maximal.

The target in the first experiment is Potassium channel subfamily K member 9 (Homo sapiens) (UniProt Q9NPC2). In words: TASK3 (KCNK9) channel inhibitors, thallium flux, SAR follow-up, selectivity assay for TASK1 inhibitor project, cell-based, FluxOR thallium flux, concentration-response (AID 652211). The conditions noted are these: KCNK9-expressing cells, FluxOR thallium flux fluorescence.
Potassium channel subfamily K member 9 (Homo sapiens), sequence (Q9NPC2 whole entry, looked up): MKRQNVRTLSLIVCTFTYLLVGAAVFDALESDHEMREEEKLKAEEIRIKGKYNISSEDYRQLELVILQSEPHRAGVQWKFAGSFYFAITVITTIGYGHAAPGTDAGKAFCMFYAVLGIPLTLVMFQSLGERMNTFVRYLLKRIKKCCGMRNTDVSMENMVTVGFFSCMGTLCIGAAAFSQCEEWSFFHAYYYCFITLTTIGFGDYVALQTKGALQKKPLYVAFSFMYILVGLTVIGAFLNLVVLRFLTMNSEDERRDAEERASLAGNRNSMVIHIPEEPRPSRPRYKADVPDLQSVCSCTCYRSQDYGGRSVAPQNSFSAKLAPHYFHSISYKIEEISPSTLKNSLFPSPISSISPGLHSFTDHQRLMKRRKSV
As for `Cc1cccc(C(=O)Nc2cccc(NC(=O)c3cccc(F)c3)c2)c1`, the IC50 is 0.6 µM.

Regarding `CC(C)c1ccccc1C(=O)Nc1cccc(NC(=O)c2ccccc2OC(F)(F)F)c1`, the IC50 is 0.73 µM.

The same experiment, now with this note: KCNK9-expressing cells, FluxOR thallium flux fluorescence; at 30 µM (top of the series).
Consider `CC(C)(C)c1ccc(C(=O)Nc2cccc(NC(=O)c3ccccc3)c2)cc1`, for which the “thallium flux ratio, lower = inhibition” value is “inactive”.

In the case of `O=C(Nc1cccc(NC(=O)c2ccccc2)c1)c1ccccc1`, the “thallium flux ratio, lower = inhibition” value was “inactive”.

Take `Cc1cccc(C(=O)Nc2ccccc2NC(=O)c2ccccc2)c1`: the “thallium flux ratio, lower = inhibition” value is “inactive”. On to `Cc1cccc(C(=O)Nc2cccc(NC(=O)c3ccc(N(C)C)cc3)c2)c1`, for which the “thallium flux ratio, lower = inhibition” value was “inactive”. For `Cc1cccc(C(=O)Nc2ccccc2C(=O)Nc2ccccc2)c1`, the “thallium flux ratio, lower = inhibition” value was “inactive”. For `CCOc1ccc(NC(=O)c2cccc(NC(=O)C3CCCC3)c2)cc1`, the “thallium flux ratio, lower = inhibition” value is “inactive”.

Consider `COc1ccc(C(=O)Nc2cccc(NC(=O)c3ccccc3)c2)cc1`, for which the “thallium flux ratio, lower = inhibition” value is “inactive”. For the compound `O=C(Nc1cccc(NC(=O)c2cccc(C(F)(F)F)c2)c1)c1ccccc1`, the “thallium flux ratio, lower = inhibition” value is “inactive”. Regarding `Cc1cccc(C(=O)Nc2cccc(NC(=O)c3ccncc3)c2)c1`, the “thallium flux ratio, lower = inhibition” value was “inactive”.

In the case of `O=C(Nc1cccc(NC(=O)c2cccnc2)c1)c1ccccc1`, the “thallium flux ratio, lower = inhibition” value is “inactive”. The same measure, in the same setting: then `O=C(Nc1cccc(NC(=O)c2ccc(Cl)cc2)c1)c1ccccc1`, with “inactive”. Same read-out and setting: next, `COc1ccc(C(=O)Nc2cccc(NC(=O)c3cccc(C)c3)c2)cc1`: “inactive”; `CCOc1ccccc1NC(=O)c1cccc(NC(=O)c2ccc(C(F)(F)F)cc2)c1`: “inactive”. Consider `O=C(Nc1cccc(NC(=O)c2cccc(Cl)c2)c1)c1ccccc1`, for which the “thallium flux ratio, lower = inhibition” value is “inactive”. Consider `O=C(Nc1cccc(NC(=O)c2cccc(F)c2)c1)c1ccccc1`, for which the “thallium flux ratio, lower = inhibition” value was “inactive”.

Turning to `Cc1ccc(C(=O)Nc2cccc(NC(=O)c3ccccc3)c2)cc1`, the “thallium flux ratio, lower = inhibition” value was “inactive”. As for `O=C(Nc1cccc(NC(=O)c2ccncc2)c1)c1ccccc1`, the “thallium flux ratio, lower = inhibition” value was “inactive”. With `CCOc1ccccc1NC(=O)c1cccc(NC(=O)C2CCCO2)c1` (centres undefined), the “thallium flux ratio, lower = inhibition” value is “inactive”.

For the compound `O=C(Nc1cccc(NC(=O)c2ccoc2)c1)c1ccccc1`, the “thallium flux ratio, lower = inhibition” value is “inactive”. On the same count and under the same terms, next, `O=C(Nc1cccc(NC(=O)c2ccc(F)cc2)c1)c1ccccc1`: “inactive”; `Cc1cccc(S(=O)(=O)Nc2cccc(NC(=O)c3ccccc3)c2)c1`: “inactive”. Turning to `CCOc1ccccc1NC(=O)c1cccc(C(=O)NC2CCCC2)c1`, the “thallium flux ratio, lower = inhibition” value is “inactive”. Consider `Cc1cccc(C(=O)Nc2cccc(NC(=O)c3ccc(C(F)(F)F)cc3)c2)c1`, for which the “thallium flux ratio, lower = inhibition” value is “inactive”. Still for that read-out and setting: next, `Cc1cccc(NC(=O)c2cccc(NC(=O)c3ccccc3)c2)c1`: “inactive”. In the case of `CCOc1ccccc1NC(=O)c1cccc(NC(=O)C2CCOC2)c1` (centres undefined), the “thallium flux ratio, lower = inhibition” value was “inactive”. Turning to `O=C(Nc1cccc(NC(=O)c2ccsc2)c1)c1ccccc1`, the “thallium flux ratio, lower = inhibition” value was “inactive”. Turning to `O=C(Nc1cccc(NC(=O)c2ccc(C(F)(F)F)cc2)c1)c1ccccc1`, the “thallium flux ratio, lower = inhibition” value is “inactive”. `Cc1cccc(C(=O)Nc2cccc(NC(=O)c3ccc(Cl)cc3)c2)c1`: the “thallium flux ratio, lower = inhibition” value was “inactive”.

On to `O=C(Nc1cccc(NC(=O)c2ccco2)c1)c1ccccc1`, for which the “thallium flux ratio, lower = inhibition” value is “inactive”.

Regarding `Cc1cccc(NC(=O)c2ccccc2NC(=O)c2ccccc2)c1`, the “thallium flux ratio, lower = inhibition” value was “inactive”. Regarding `COc1ccccc1C(=O)Nc1cc(NC(=O)c2ccccc2C(C)C)ccc1F`, the “thallium flux ratio, lower = inhibition” value was “inactive”.

For `O=C(Nc1cccc(NC(=O)c2cccs2)c1)c1ccccc1`, the “thallium flux ratio, lower = inhibition” value is “inactive”. In the case of `Cc1cccc(C(=O)Nc2cccc(C(=O)Nc3ccccc3)c2)c1`, the “thallium flux ratio, lower = inhibition” value was “inactive”. In the case of `CCOc1ccccc1NC(=O)c1cccc(NC(=O)c2ccc(OC)cc2)c1`, the “thallium flux ratio, lower = inhibition” value is “inactive”.

With `Cc1cccc(C(=O)Nc2cccc(NC(=O)c3ccc(C(C)(C)C)cc3)c2)c1`, the “thallium flux ratio, lower = inhibition” value is “inactive”. As to `CN(C)c1ccc(C(=O)Nc2cccc(NC(=O)c3ccccc3)c2)cc1`, the “thallium flux ratio, lower = inhibition” value is “inactive”.

In the case of `CCOc1ccccc1NC(=O)c1cccc(NC(=O)c2ccc(Cl)cc2)c1`, the “thallium flux ratio, lower = inhibition” value is “inactive”.
